Results on three compounds are retold here after patent publication US20080220101A1, “COMPOSITIONS OF EXTRACTS OF ALOE FOR ORAL ADMINISTRATION” (priority 2007, published 2008).

Marks after values point to notes of the source that are not given here. Residues, ends and D or L forms follow the SMILES beside them.

What all share (assay type): in vivo
One experiment concerns Spodoptera littoralis. Description: Binary choice glass-fiber disc feeding bioassay (Feeding Index). The conditions noted are these: for Feeding response in words, in combination with glucose: glucose 0.05M; for Feeding response in words, in combination with glucose / Feeding response in words, in combination with sucrose: 100, 1000 and 10,000 ppm; for Feeding Index: n = 15; for Feeding response in words, in combination with sucrose: sucrose 0.05M. The method, then: All experiments were done on the final stage larvae of Spodoptera littoralis. Prior to the experiment, the insects were deprived of food for 2 hours. This has been calculated as a period when most insects would commence feeding. Thus, the food from the previous meal has started to pass into and through the gut. The initial experiment investigated whether the insects could “taste” the plant preparations or extracts and whether they stimulated or deterred feeding. […] A negative value indicates a phagostimulant and a positive value indicates an appetite suppressant. Experiments are usually repeated with between 10-20 insects and the data are analysed using the Wilcoxon matched pairs test. A series of controls were used at the start of the experiment to illustrate the difference in the response of the larvae to sucrose and glucose both tested at 0.05M. Results have been presented as means.

Experiment [1] concerns larvae of Spodoptera littoralis. Description: Behavioral response of cannulated insects to glucose (latency, meal duration, time to second meal). The conditions noted are these: glucose treated disc, solvent water. The method, then: Material and methods. Final stage larvae were removed from food and after 2 hours, they were cannulated via the oral cavity with […] of a test solution, with water used as a control. The extracts were tested at 10,000 ppm, 1,000 ppm and 100 ppm. The insects were then placed in a Petri dish with a glucose treated glass-fiber disc. The time taken for the insects to start a meal (latency), the duration of a meal (meal duration) and the time taken to take the second meal were recorded. This provides information about whether the extracts once consumed would delay feeding, whether the extracts would alter the duration of a meal once it had started, and whether the time to the second meal would be altered. […] The time to the start of a meal was extended, when compared with the water control, after cannulation with Aloe and Ginseng. Aloe acted as stimulants in the glass-fiber disc bioassays, whereas Ginseng was a potent suppressant. Thus, the Ginseng could be having a negative activity on time to feed, whereas the response to Aloe could be because of a “positive” response. The end effect is the same in that both groups caused an increase in the latency to feed. […] None of the extracts influenced the duration of the first recorded meal.

The subject of experiment [2] is medial sensilla of Spodoptera littoralis larvae. Description: Electrophysiology: neural response of the medial sensilla after cannulation. The conditions noted are these: for Impulses per second from the medial styloconic sensilla, stimulus C: stimulus KCl (0.05M); for Impulses per second from the medial styloconic sensilla, stimulus P: stimulus amino acid mixture; for Impulses per second from the medial styloconic sensilla, stimulus G: stimulus glucose (0.05M); for Impulses per second from the medial styloconic sensilla, stimulus S: stimulus sucrose (0.05M). The text has this:
Insects use sensilla on their mouthparts to taste their food. These sensilla contain neurones that respond to compounds in their food. An electrophysiological bioassay has been developed to record the neural impulses from the four neurones in each sensilla. […] Previous experiments have shown that the responsiveness of the insects can be influenced by the diet an insect has been reared on and previous exposure to a compound. The physiological condition of the insect can also influence the responsiveness of these neurones. In these experiments, we […] classify the neurones down to specific neurones but this requires some further experiments not undertaken in this study. […] Each larva was tested with KCl (C=0.05M) as a control, sucrose (S=0.05M), glucose (G=0.05M) and amino acid mix (P=0.05M). A set of experiments were undertaken on a control non-cannulated group of insects. […] Prior to the experiment, the insects had been standardized as in the behavioral experiments.

[3] abbreviates: in combination with glucose 0.05M, extract 100 ppm.
Setting [4] is: in combination with glucose 0.05M, extract 1,000 ppm.
The mark [5] stands for this setting: in combination with glucose 0.05M, extract 10,000 ppm.
Where [6] appears, read: in combination with sucrose 0.05M, extract 100 ppm.
Setting [7] is: in combination with sucrose 0.05M, extract 1,000 ppm.
[8] abbreviates: in combination with sucrose 0.05M, extract 10,000 ppm.
The mark [9] stands for this setting: 30 min after cannulation at 1000 ppm.
[10] abbreviates: 1 h after cannulation at 1000 ppm.

Consider `O=C1NS(=O)(=O)c2ccccc21` [Saccharin], for which, in the experiment with Spodoptera littoralis, the “Feeding response in words, in combination with glucose” value is on record as “stimulated feeding at lower concentrations”. The “Feeding Index” value in the experiment on Spodoptera littoralis (setting [3]) was −24* %; in the experiment with Spodoptera littoralis (setting [4]), −25* %; with Spodoptera littoralis (setting [5]) it was −18%; with Spodoptera littoralis (setting [6]), −16%; in the experiment on Spodoptera littoralis (setting [7]) it was −5%; in the experiment with Spodoptera littoralis (setting [8]) it was 5%. In addition, the “Feeding response in words, in combination with sucrose” value in the experiment on Spodoptera littoralis is given as “not significant”. The values for the Latency in experiment [1] (concentration 0.1k (100 ppm)), in experiment [1] (concentration 1k (1,000 ppm)) and in experiment [1] (concentration 10k (10,000 ppm)) were 24 min, 24 min and 25 min, respectively. Further, the Meal duration came out at 16 min in experiment [1] (concentration 0.1k (100 ppm)), 14 min in experiment [1] (concentration 1k (1,000 ppm)) and 14 min in experiment [1] (concentration 10k (10,000 ppm)). The “Time to 2nd meal” value in experiment [1] (concentration 0.1k (100 ppm)) was found to be 11 min; in experiment [1] (concentration 1k (1,000 ppm)), 18 min; in experiment [1] (concentration 10k (10,000 ppm)), 18 min. Moreover, the entries for the “Impulses per second from the medial styloconic sensilla, stimulus C” value in experiment [2] (setting [9]) and in experiment [2] (setting [10]) were 9 impulses per second and 15 impulses per second, respectively. Also, the “Impulses per second from the medial styloconic sensilla, stimulus P” value in experiment [2] (setting [9]) is 29 impulses per second; in experiment [2] (setting [10]), 47 impulses per second. Also, the entries for the “Impulses per second from the medial styloconic sensilla, stimulus G” value in experiment [2] (setting [9]) and in experiment [2] (setting [10]) were 45 impulses per second and 28 impulses per second, respectively. For the same compound, the “Impulses per second from the medial styloconic sensilla, stimulus S” value is on record as 65 impulses per second in experiment [2] (setting [9]) and 48 impulses per second in experiment [2] (setting [10]).

Turning to `COC(=O)[C@H](Cc1ccccc1)NC(=O)[C@@H](N)CC(=O)O` [Aspartame] (H-Asp-Phe-OMe), in the experiment with Spodoptera littoralis, the “Feeding response in words, in combination with glucose” value is listed as “stimulated feeding at lower concentrations”. Moreover, the “Feeding Index” value with Spodoptera littoralis (setting [3]) is recorded as −25* %; in the experiment with Spodoptera littoralis (setting [4]), −31* %; in the experiment on Spodoptera littoralis (setting [5]), −24%; in the experiment with Spodoptera littoralis (setting [6]), −15%; with Spodoptera littoralis (setting [7]), 14%; with Spodoptera littoralis (setting [8]) it was 15%. In the experiment on Spodoptera littoralis, the “Feeding response in words, in combination with sucrose” value is reported as “not significant”. The Latency in experiment [1] (concentration 0.1k (100 ppm)) is on record as 21 min; in experiment [1] (concentration 1k (1,000 ppm)), 24 min; in experiment [1] (concentration 10k (10,000 ppm)) it was 20 min. Besides, the Meal duration in experiment [1] (concentration 0.1k (100 ppm)) worked out at 17 min; in experiment [1] (concentration 1k (1,000 ppm)), 12 min; in experiment [1] (concentration 10k (10,000 ppm)), 12 min. Moreover, the “Time to 2nd meal” value came out at 15 min in experiment [1] (concentration 0.1k (100 ppm)), 15 min in experiment [1] (concentration 1k (1,000 ppm)) and 17 min in experiment [1] (concentration 10k (10,000 ppm)). The “Impulses per second from the medial styloconic sensilla, stimulus C” value is on record as 10 impulses per second in experiment [2] (setting [9]) and 12 impulses per second in experiment [2] (setting [10]). For the same compound, the “Impulses per second from the medial styloconic sensilla, stimulus P” value in experiment [2] (setting [9]) and in experiment [2] (setting [10]) was 24 impulses per second each time. The “Impulses per second from the medial styloconic sensilla, stimulus G” value is 45 impulses per second in experiment [2] (setting [9]) and 25 impulses per second in experiment [2] (setting [10]). The “Impulses per second from the medial styloconic sensilla, stimulus S” value in experiment [2] (setting [9]) was 57 impulses per second; in experiment [2] (setting [10]), 48 impulses per second.

In the case of `OC[C@H]1O[C@@](CO)(O[C@H]2O[C@H](CO)[C@@H](O)[C@H](O)[C@H]2O)[C@@H](O)[C@@H]1O` [Sucrose], the “Feeding Index” value with Spodoptera littoralis (control disc sucrose 0.05M versus treatment disc sucrose 0.05M, 18 hours) is 10.7%; with Spodoptera littoralis (control disc sucrose 0.05M versus untreated treatment disc, 18 hours), 46.3* %. Moreover, in the experiment with Spodoptera littoralis (sucrose versus glucose, both 0.05M), the “Phagostimulant potency in words” value was “more potent phagostimulant to S. littoralis than glucose”.
